Assay results: paper PMC9655618 (Cancers, 2022)

Columns and labels:
[1] = tested on: STAT3 transcriptional activity in HEK293 cells; assay: IL6-induced STAT3 transcriptional activity, Renilla reporter HEK-293 cells; details: hIL6 10 ng/ml
VERO cells = assay: MTT cell viability assay; format: cell-based, monkey; details: Primates, Vero, 72 h, 10%FBS growth media
Procedure: (§1) Straightforward, the tetrazolium salt 3-(4,5-methyltiazol-2yl-)-2,5diphenyl-tetrazolium bromide (MTT) (Applichen, Darmstadt, Germany) was added to cells, incubated for 2–4 h at 37 °C, and lysed in 10% SDS.

T47D cells = assay: MTT cell viability assay; format: cell-based, human; details: Homo sapiens, T47D, 72 h, 10%FBS growth media
Procedure: (§2) Straightforward, the tetrazolium salt 3-(4,5-methyltiazol-2yl-)-2,5diphenyl-tetrazolium bromide (MTT) (Applichen, Darmstadt, Germany) was added to cells, incubated for 2–4 h at 37 °C, and lysed in 10% SDS. The mitochondrial metabolization of the tetrazolium salt was determined by the analysis of the optical density at 595 nm, measured with the iMark microplate Reader (Bio–Rad, Irvine, CA, USA).

PBMC = assay: MTT cell viability assay; format: cell-based; details: Homo sapiens, 72 h, 10%FBS growth media
Procedure: as §1

Ishikawa cells = assay: MTT cell viability assay; format: cell-based, human; details: Homo sapiens, Ishikawa, read-out: IC50 (μM) ISHIKAWA, 72 h, 10%FBS growth media
Procedure: as §1

MCF-7/BUS cells = assay: MTT cell viability assay; format: cell-based, human; details: Homo sapiens, MCF7/BUS; 72 h, 10%FBS growth media, MTT; read-out: IC50 (μM) MCF-7/BUS
Procedure: as §1

Hs-578T cells = assay: MTT cell viability assay; format: cell-based, human; details: Homo sapiens, Hs-578T, 72 h, 10%FBS growth media
Procedure: as §1

MDA-MB-231 cells = assay: MTT cell viability assay; format: cell-based, human; details: Homo sapiens, MDA-MB-231, 72 h, 10%FBS growth media
Procedure: as §1

SK-BR-3 cells = assay: MTT cell viability assay; format: cell-based, human; details: Homo sapiens, SK-BR-3, 72 h, 10%FBS growth media
Procedure: as §1

MCF-7 cells = assay: MTT cell viability assay; format: cell-based, human; details: Homo sapiens, MCF7, 72 h, 10%FBS growth media
Procedure: as §1

BT-549 cells = assay: MTT cell viability assay; format: cell-based, human; details: Homo sapiens, BT-549, 72 h, 10%FBS growth media
Procedure: as §1

MCF-10A cells = assay: MTT cell viability assay; format: cell-based, human; details: Homo sapiens, MCF-10A, 72 h, 10%FBS growth media
Procedure: as §1

[2] = tested on: ER+ cancer cells (i.e., MCF-7, MCF-7/BUS, T47D and Ishikawa cells); assay: MTT cell viability, summary over ER+ cancer cells; format: cell-based; details: Homo sapiens, read-out: IC50, viability of ER+ cancer cells, E2-non-depleted cells, text summary of Table 1 over MCF-7, MCF-7/BUS
Procedure: as §2

Compound | maximal luciferase activity or Emax [1] [fold induction] | IC50 (VERO cells) [µM] | IC50 (T47D cells) [µM] | IC50 (PBMC) [µM] | IC50 (Ishikawa cells) [µM] | IC50 (MCF-7/BUS cells) [µM] | IC50 (Hs-578T cells) [µM] | IC50 (MDA-MB-231 cells) [µM] | IC50 (SK-BR-3 cells) [µM] | IC50 (MCF-7 cells) [µM] | IC50 (BT-549 cells) [µM] | IC50 (MCF-10A cells) [µM] | IC50 [2] [nM]
hIL-6: pure agonist hIL6 (10 ng/mL) used to induce STAT3 transcriptional activity | 10.08 ± 2.41 |  |  |  |  |  |  |  |  |  |  |  | 
COc1cccc2c1C(=O)c1c(O)c3c(c(O)c1C2=O)C[C@@](O)(C(=O)CO)C[C@@H]3O[C@H]1C[C@H](N)[C@H](O)[C@H](C)O1 [DOXO, doxorubicin, reference compound] |  | 2.62 ± 0.24 | 0.15 ± 0.02 | 1.47 ± 0.69 | 0.09 ± 0.03 | 0.05 ± 0.02 | 0.37 ± 0.05 | 0.25 ± 0.07 | 0.04 ± 0.01 | 0.07 ± 0.01 | 0.19 ± 0.04 | 0.09 ± 0.01 | 
COc1ccccc1C1=CC(O)(c2ccc([N+](=O)[O-])cc2)N(Cc2ccccc2)C1=O (stereo not shown) [compound 49, 1-benzyl-5-hydroxy-3-(2-methoxyphenyl)-5-(4-nitrophenyl)-1H-pyrrol-2(5H)-one] |  |  | > 10 |  | 4.82 ± 1.84 | 5 ± 1.79 | > 10 | 7.94 ± 2.07 | > 10 | 3.47 ± 1.12 | > 10 | 0.31 ± 0.03 | < 10000
COc1ccc(C2=CC(O)(c3ccc([N+](=O)[O-])cc3)N(Cc3ccccc3)C2=O)cc1 (stereo not shown) [compound 43, 1-benzyl-5-hydroxy-3-(4-methoxyphenyl)-5-(4-nitrophenyl)-1H-pyrrol-2(5H)-one] |  |  | 8.57 ± 0.43 |  | 3.47 ± 0.94 | 2.85 ± 1.24 | > 10 | > 10 | 2.16 ± 0.05 | 6.54 ± 0.41 | 6.23 ± 3.48 |  | < 10000
